The values below come from patent US20160166578A1, “METHOD FOR TREATING TYPE I AND TYPE II DIABETES” (PRISM Phama Ltd., priority 2012, published 2016).

A short description of data set [1]: Primate study in aged hyperglycemic monkeys (c-peptide, insulin, HbA1c). Format: in vivo, Macaca fascicularis. Conditions: 8 mg/Kg/Day continuous infusion i.p., 84 days. On the procedure: Animals: aged Macaca fascicularis (21 to 27 years old) monkeys that have hyperglycemia, N=3.
Administration: Compound A (8 mg/Kg/Day) administrated by continuous infusion by i.p. from day 152 to 236 (84 days). Biochemical tests: c-peptide, insulin, and HbA1c levels were measured every week.
C-peptide, a byproduct of insulin production that is elevated in hyperglycemia, was measured using ELECSYS c-peptide assay (Roche Diagnostics, Hoffmann-La Roche Ltd.) with electrochemiluminescence assay (ECLIA) readout.
Insulin levels were measured using the E test II IRI, EIA method (TOSOH Corp., Tokyo). Insulin levels are elevated in hyperglycemia.
HbA1c or glycated hemoglobin (hemoglobin A1c) was measured to identify the average glycated hemoglobin, as a measure of plasma glucose concentration, over the previous months prior to the measurement. HbA1c levels are elevated in hyperglycemia. HbA1c was measured using the Nordia N HbA1c assay kit, enzyme method (Sekisui Medical Co., Ltd., Japan).

Another data set relates to Wnt signaling pathway. Put plainly: Reporter gene assay (SuperTOPFlash luciferase, STF reporter cell line). In kind it is cell-based. The note with it: Homo sapiens; at a concentration of 1 μM; Hek-293 STF reporter cells, LiCl stimulation, 24 hours; read-out: inhibitory activity. Here is the method:
Screening for inhibitory action of the Wnt signaling pathway was carried out according to the following procedure using an STF reporter cell line (human embryonic kidney cell line Hek-293 stably transfected with the firefly luciferase gene under the control of eight tandem repeats of the SuperTOPFlash reporter element; Cell 116:883-895, 2004).
Growth Medium: Dulbecco's Modified Eagle Medium (DMEM), 10% FBS, Pen-Strep, supplemented with 400 µg/ml G418 antibiotic to maintain selection of SuperTOPFlash driven luciferase gene.
On the day prior to assay, cells were split into a white opaque 96-well plate at 20,000 cells per well in 200 microliters of complete growth medium. The plate was incubated overnight at 37° C., 5% CO2 to allow the cells to attach to the surface.
The next day, the inhibitors were prepared to be tested in complete growth medium, without G418, at 2× the desired final concentration (all conditions are done in duplicate). The existing medium was carefully pipetted from each well using a multiple pipettor. 50 microliters of fresh growth medium (without G148) containing the inhibitor (Compound A) was added to each well. […]
After 24 hours, 100 microliters of BrightGlo reagent (Promega, Madison, Wis.) was added to each well. […] The plate was read using a Packard TopCount (PerkinElmer, Inc.).

Data set [2] in a line: Blood glucose levels in human clinical trial (patients with cancer and type II diabetes). In kind it is in vivo. Conditions: for blood glucose levels: 7 days continuous IV infusion, one week on and one week off. On the procedure: Patients with cancer and type II diabetes were enrolled in a clinical trial (Safety and Efficacy Study in Subjects With Advanced Solid). The efficacy of Compound A for the treatment of diabetes was investigated by measurement of the blood glucose level of the patients. Conditions of patients enrolled in this study are as follows:
(Patient 101), with sigmoid colon cancer and diabetes. Compound A was administered at 40 mg/m^2/day, and Metformin Hydrochloride
(Patient 1103), with colon cancer and diabetes. Compound A was administered at 905 mg/m^2/day, in addition patient was treated with pioglitazone hydrochloride (Actos) and Metformin Hydrochloride.
Compound A administration was 7 days continuous IV infusion. The cycle of administration is one week on and one week off.
In addition to already prescribed drugs (pioglitazone hydrochloride or Metformin Hydrochloride) as basic treatment, Compound A with a defined dose for each patient was intravenously administrated for 7 continuous days followed by a 7-day rest period. This 14 days period with 7-day infusion period and 7-day rest period is defined as one cycle. Basic treatment for diabetes was continuously performed during this period. During the administration period (first, fifth and eighth day of each cycle) or after the administration, blood glucose levels were measured.

`C[C@H]1[C@H]2N(C(=O)CN(C)N2C(=O)NCc2ccccc2)[C@@H](Cc2ccc(OP(=O)(O)O)cc2)C(=O)N1Cc1cccc2cccnc12` [Compound A, 4-(((6S,9S,9aS)-1-(benzylcarbamoyl)-2,9-dimethyl-4,7-dioxo-8-(quinolin-8-ylmethyl)octahydro-1H-pyrazino[2,1-c][1,2,4]triazin-6-yl)methyl)phenyl dihydrogen phosphate]: in data set [1] (FIG. 3), the c-peptide levels entry was “c-peptide levels fall over time”. For the same compound, the insulin levels entry in data set [1] (FIG. 4) is reported as “insulin levels fall over time”. In addition, in data set [1] (FIG. 5), the “HbA1c levels (ratio of mmol HbA1c to mol hemoglobin)” value is given as “HbA1c levels fall over time”. The inhibition at 1 µM with Wnt signaling pathway is > 50%. Also, the blood glucose levels entry in data set [2] (Patient 101, 40 mg/m^2/day, with Metformin Hydrochloride, by the end of every cycle (FIG. 1)) is given as “blood glucose levels are reduced”; in data set [2] (Patient 1103, 905 mg/m^2/day, with pioglitazone hydrochloride and Metformin Hydrochloride, by the end of every cycle (FIG. 2)) it was “blood glucose levels are reduced”. The “blood glucose level of patients with type II diabetes not adequately controlled by known drugs” value in data set [2] (concomitant use with known drugs for type II diabetes) was “significantly decreased”. In addition, in data set [2] (patients with type II diabetes, concomitant with known drugs for diabetes), the “adverse effects of concomitant use” value was “No adverse effects”.
